{
  "source": "patent US8481553B2",
  "about": "“Antimetastatic compounds” (Brigham Young University, priority 2010, dated 2013)",
  "data": [
    {"system": "MDCK cells", "test": "HGF-induced epithelial-mesenchymal transition / migration of MDCK cells on transwell filters (crystal violet densitometry)", "format": "cell-based", "conditions": "Canis lupus familiaris, MDCK; test compound 10 μM, then HGF, 24 hours; percentage value like the untreated controls (unstimulated cells = maximal effect, HGF treated cells without compound = nil effect)", "protocol": "(§1) MDCK cells were seeded at confluency into the wells of a transwell filter in DMEM with 10% fetal bovine serum. Cells were cultured for 24 hours. Test compounds, dissolved in DMSO, were added to each test well to a 10 μM final concentration, and then hepatocyte growth factor (HGF) was then added. The MDCK cells were cultured for 24 hours. Concurrently, controls treated with and without HGF and with no test compounds were also prepared.\n(§2) After post-HGF addition culturing, transwell filters were prepared by repeated washing using ice cold PBS. The cells were then fixed with paraformaldehyde (3.7%) on ice for 15 minutes to the filters. After fixation, the transwell filters were washed repeatedly with PBS followed by staining with crystal violet for 15 minutes. The transwell filters were washed again with distilled water.\n(§3) The upper surface of the transwell filters were swabbed using a cotton-tipped probe. The filters were photographed using a gel documentation system. Densitometry measurements were made on the test samples and compared with control samples.", "units": {"inhibition at 10 µM": "%"}, "values": [
      {"smiles": "C=CCc1ccccc1OCC(=O)N/N=C/c1cccc(Oc2ccccc2)c1", "note": "[Compound 3]", "inhibition at 10 µM": 70.9},
      {"smiles": "Oc1cccc2ccc(/C=C/c3ccc(Cl)c(Cl)c3)nc12", "note": "[Compound B-8]", "inhibition at 10 µM": "> 5"},
      {"smiles": "COc1cc(/C=C/c2ccc3cccc(OC(C)=O)c3n2)ccc1O", "note": "[Compound B-29]", "inhibition at 10 µM": 94.2},
      {"smiles": "N#Cc1ccccc1OCC(=O)N/N=C/c1cccc(Br)c1", "note": "[Compound 12]", "inhibition at 10 µM": 67.7},
      {"smiles": "COc1cc(/C=C/c2ccc3cccc(OCc4ccccc4Cl)c3n2)cc(OC)c1OC", "note": "[Compound B-17]", "inhibition at 10 µM": 100},
      {"smiles": "CCOC(=O)/C=C/CSc1nc2sc3c(c2c(=O)[nH]1)CCCC3", "note": "[Compound A-15]", "inhibition at 10 µM": 71.3},
      {"smiles": "N#Cc1ccccc1OCC(=O)N/N=C/c1c(Cl)cccc1Cl", "note": "[Compound 13]", "inhibition at 10 µM": 86},
      {"smiles": "COc1cc(/C=C/c2ccc3cccc(O)c3n2)cc(OC)c1O", "note": "[Compound B-36]", "inhibition at 10 µM": "< 5"},
      {"smiles": "COc1ccc(/C=C/c2ccc3cccc(OC)c3n2)cc1Cl", "note": "[Compound B-6]", "inhibition at 10 µM": "> 5"},
      {"smiles": "C=CCc1ccccc1OCC(=O)N/N=C/c1ccc(Cl)cc1", "note": "[Compound 2]", "inhibition at 10 µM": 67.3},
      {"smiles": "O=C1c2cccc3cccc(c23)C(=O)N1CCc1nc2sc3c(c2c(=O)[nH]1)CCCC3", "note": "[Compound A-3]", "inhibition at 10 µM": 73.4},
      {"smiles": "CCOc1cc(/C=C/c2ccc3cccc(O)c3n2)ccc1OC", "note": "[Compound B-2]", "inhibition at 10 µM": "> 5"},
      {"smiles": "CCOc1ccccc1OCC(=O)N/N=C/c1ccc(O)cc1O", "note": "[Compound 4]", "inhibition at 10 µM": 32.3},
      {"smiles": "COc1cc(/C=C/c2ccc3cccc(O)c3n2)ccc1O", "note": "[Compound B-3]", "inhibition at 10 µM": "> 5"},
      {"smiles": "N#Cc1ccccc1OCC(=O)N/N=C/c1ccccc1O", "note": "[Compound 5]", "inhibition at 10 µM": 41.1},
      {"smiles": "Cc1noc(C)c1CSc1nc2sc3c(c2c(=O)n1-c1ccccc1)CCCC3", "note": "[Compound A-7]", "inhibition at 10 µM": 31.3},
      {"smiles": "COc1cc(/C=C/c2ccc3cccc(O)c3n2)cc(OC)c1OC", "note": "[Compound B-35]", "inhibition at 10 µM": "< 5"},
      {"smiles": "COc1ccc(/C=C/c2ccc3cccc(O)c3n2)cc1C", "note": "[Compound B-33]", "inhibition at 10 µM": 90.7}
    ]},
    {"system": "MDCK cells", "test": "HGF-induced epithelial-mesenchymal transition / migration of MDCK cells on transwell filters (crystal violet densitometry)", "format": "cell-based", "conditions": "test compound 10 μM, then HGF, 24 hours; percentage value like the untreated controls (unstimulated cells = maximal effect, HGF treated cells without compound = nil effect)", "protocol": "as §1, §2, §3", "units": {"Assay Value": "%"}, "values": [
      {"smiles": "CC1CCc2c(sc3nc(Cc4ccccc4)[nH]c(=O)c23)C1", "note": "(stereo not shown) [Compound A-18]", "Assay Value": "<5"},
      {"smiles": "Cc1cccc(OCC(=O)N/N=C/c2cccc(I)c2)c1", "note": "[Compound 16]", "Assay Value": "<5"},
      {"smiles": "Cc1ccccc1OCC(=O)N/N=C/c1ccc(F)cc1", "note": "[Compound 26]", "Assay Value": "<5"},
      {"smiles": "Cc1ccc(C)c(OCC(=O)N/N=C/c2ccc(CC(=O)O)cc2)c1C", "note": "[Compound 25]", "Assay Value": "<5"},
      {"smiles": "O=C(COc1ccccc1Br)N/N=C/c1cccc(Br)c1", "note": "[Compound 28]", "Assay Value": "<5"},
      {"smiles": "Oc1cccc2ccc(/C=C/c3ccc(OCc4ccccc4)cc3)nc12", "note": "[Compound B-19]", "Assay Value": 91.0},
      {"smiles": "COc1ccccc1OCC(=O)N/N=C/c1ccc(Cl)cc1", "note": "[Compound 33]", "Assay Value": "<5"},
      {"smiles": "COc1cccc(/C=N/NC(=O)COc2cc(C)ccc2C(C)C)c1", "note": "[Compound 24]", "Assay Value": "<5"},
      {"smiles": "COc1ccc(/C=N/NC(=O)COc2ccccc2C)cc1", "note": "[Compound 19]", "Assay Value": "<5"},
      {"smiles": "Cc1cc(C)c(OCC(=O)N/N=C/c2ccccc2)c(C)c1", "note": "[Compound 17]", "Assay Value": "<5"}
    ]}
  ]
}
